Test system: KRAS PDC multicell spheroid viability
Experiment: Anticancer human tumor 521955-158-R6-J3-PDC patient-derived pancreatic carcinoma cell line growth inhibition [KRAS2]
Conditions: for IC50: curve of first compound; for viability, T/C: stronger effect = lower value
Source text: Multicellular complex tumor spheroid response to RAS pathway inhibitors in combination with a targeted agents in patient-derived cell lines with oncogenic KRAS variants from multiple cancer types
A high-throughput screen of multi-cell type tumor spheroids was designed to identify active combinations of targeted small molecules and KRAS pathway inhibitors. Complex spheroids include a stromal component modeled by human endothelial cells (HUVEC) and fibroblasts modeled by human mesenchymal stem cells (MSCs). The concentration ranges selected for each drug and investigational agent were based upon clinically achievable concentrations if the clinical Cmax of the agent was known.
Compounds. The drugs and investigational agents: BI-3406 (NSC825286), BAY-293 (NSC824723), batoprotafib (TNO155; NSC825523), sotorasib (AMG 510; NSC818433), MRTX1257 (NSC819558), elimusertib (BAY 1895344; NSC800525), molibresib (GSK525762; NSC774829), temuterkib (LY3214996; NSC803410), venetoclax (NSC766270), alisertib (NSC759677), olaparib (NSC753686), talazoparib (NSC767125), erdafitinib (NSC781556), ipatasertib (NSC767898), cabozantinib (NSC761068), nintedanib (NSC756659), abemaciclib (NSC768073), docetaxel (NSC628503), trametinib (NSC758246), and sapanisertib (NSC764658) were obtained from the National Cancer Institute (NCI) Developmental Therapeutics Program Chemical Repository. The FDA-approved anticancer drug set is available from the Developmental Therapeutics Program. […] The stock solutions were prepared in dimethyl sulfoxide (DMSO, Sigma-Aldrich, St. Louis, MO, cat. D2650) at 800-fold the tested concentration and stored at -70 degrees C prior to their use. All drugs and investigational agents were tested over a range starting from a high concentration at or near the clinical Cmax and decreasing in half-log increments. If the clinical Cmax for an agent had not been determined, the highest concentration tested was 10 microM.
Cell Culture. All cells were maintained in an incubator at 37 degrees C and 5% CO2 with 95% humidity. The PDC lines were cultured according to standard operating procedures established by the NCI PDMR (https://pdmr.cancer.gov/sops/default.htm). Briefly, all PDCs were thawed and cultured in Matrigel-coated flasks prepared with a working solution of 1X Ham's F-12 nutrient mix, without supplementation (Invitrogen, Waltham, MA, cat. 11765054), 100 U/mL penicillin-streptomycin (Invitrogen, cat. 15140122), and 2.5% Matrigel (Corning Inc., Corning, NY, cat. 354248) for the first three passages. All PDCs were cultured in complete DMEM/F-12 media containing advanced DMEM/F-12 (Invitrogen, cat. 12634028), 4.9% defined fetal bovine serum, heat inactivated (HyClone Laboratories Inc., Logan, UT, cat. SH30070.03HI), 389 ng/mL hydrocortisone (Sigma-Aldrich, cat. H4001), 9.7 ng/mL human EGF recombinant protein (Invitrogen, cat. PHG0313), 23.4 microg/mL adenine (Sigma-Aldrich, cat. A2786), 97.3 U/mL penicillin-streptomycin (Invitrogen, cat. 15140122), 1.9 mM L-glutamine (Invitrogen, cat. 25030081), and 9.7 microM Y-27632 dihydrochloride (Tocris Bioscience, Bristol, United Kingdom, cat. 1254). The PDCs were cultured in complete DMEM/F12 media without 9.7 microM Y-27632 dihydrochloride for at least two passages prior to the screen. The established cell line HOP-62 was cultured in RPMI 1640 medium, HEPES (Invitrogen, cat. 22400105) with 10% defined fetal bovine serum (HyClone Laboratories Inc., cat. SH30070.03) and 2 mM L-glutamine (Invitrogen, cat. 25030081). The pooled donor HUVEC were cultured in endothelial cell growth medium 2 (PromoCell, Heidelberg, Germany, cat. C-22011) and the hMSC were cultured in mesenchymal stem cell growth medium 2 (PromoCell, cat. C-28009). For all experiments, HUVEC and hMSC were used at passages </=5, while the malignant cell lines were used at passages </=15. […]

[1] = second compound 0.1 µM, first compound 0.0316 µM
[2] = second compound 0.1 µM, first compound 0.1 µM
[3] = second compound 0.1 µM, first compound 0.316 µM
[4] = second compound 0.1 µM, first compound 1 µM
[5] = second compound 0.1 µM, first compound 3.16 µM
[6] = second compound 0.1 µM, first compound 10 µM
[7] = second compound 0.316 µM, first compound 0.0316 µM
[8] = second compound 0.316 µM, first compound 0.1 µM
[9] = second compound 0.316 µM, first compound 0.316 µM
[10] = second compound 0.316 µM, first compound 1 µM
[11] = second compound 0.316 µM, first compound 3.16 µM
[12] = second compound 0.316 µM, first compound 10 µM
[13] = second compound 1 µM, first compound 0.0316 µM
[14] = second compound 1 µM, first compound 0.1 µM
[15] = second compound 1 µM, first compound 0.316 µM
[16] = second compound 1 µM, first compound 1 µM
[17] = second compound 1 µM, first compound 3.16 µM
[18] = second compound 1 µM, first compound 10 µM
[19] = second compound 3.16 µM, first compound 0.0316 µM
[20] = second compound 3.16 µM, first compound 0.1 µM
[21] = second compound 3.16 µM, first compound 0.316 µM
[22] = second compound 3.16 µM, first compound 1 µM
[23] = second compound 3.16 µM, first compound 3.16 µM
[24] = second compound 3.16 µM, first compound 10 µM
[25] = second compound 10 µM, first compound 0.0316 µM
[26] = second compound 10 µM, first compound 0.1 µM
[27] = second compound 10 µM, first compound 0.316 µM
[28] = second compound 10 µM, first compound 1 µM
[29] = second compound 10 µM, first compound 3.16 µM
[30] = second compound 10 µM, first compound 10 µM
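Further: drug exposure lasted seven days.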
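Wherever viability, T/C is given: 100% = DMSO vehicle wells and lower means fewer viable cells.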

Compound | IC50 (second compound 0.1 µM) [µM] | IC50 (second compound 0.316 µM) [µM] | IC50 (second compound 1 µM) [µM] | IC50 (second compound 3.16 µM) [µM] | IC50 (second compound 10 µM) [µM] | viability, T/C [1] [%] | viability, T/C [2] [%] | viability, T/C [3] [%] | viability, T/C [4] [%] | viability, T/C [5] [%] | viability, T/C [6] [%] | viability, T/C [7] [%] | viability, T/C [8] [%] | viability, T/C [9] [%] | viability, T/C [10] [%] | viability, T/C [11] [%] | viability, T/C [12] [%] | viability, T/C [13] [%] | viability, T/C [14] [%] | viability, T/C [15] [%] | further results
COc1cc(Nc2ncc3c(n2)-c2ccc(Cl)cc2C(c2c(F)cccc2OC)=NC3)ccc1C(=O)O + C=CC(=O)N1CCN(c2nc(=O)n(-c3c(C)ccnc3C(C)C)c3nc(-c4c(O)cccc4F)c(F)cc23)C(C)C1 | > 10 | > 10 | > 10 | > 10 | > 10 | 109 | 103 | 102 | 92.6 | 89.1 | 89.8 | 100 | 108 | 99.4 | 79.6 | 82.9 | 82.1 | 93.2 | 103 | 94.7 | viability, T/C [16]: 95.6%; viability, T/C [17]: 86.3%; viability, T/C [18]: 80.5%; viability, T/C [19]: 91.3%; viability, T/C [20]: 89.9%; viability, T/C [21]: 77.4%; viability, T/C [22]: 78.6%; viability, T/C [23]: 84.6%; viability, T/C [24]: 79%; viability, T/C [25]: 71.5%; viability, T/C [26]: 77.9%; viability, T/C [27]: 70.6%; viability, T/C [28]: 62.4%; viability, T/C [29]: 54.2%; viability, T/C [30]: 58.3%
COc1cc2nccc(Oc3ccc(NC(=O)C4(C(=O)Nc5ccc(F)cc5)CC4)cc3)c2cc1OC + C=CC(=O)N1CCN(c2nc(=O)n(-c3c(C)ccnc3C(C)C)c3nc(-c4c(O)cccc4F)c(F)cc23)C(C)C1 | > 10 | > 10 | > 10 | > 10 | > 10 | 91.9 | 96.8 | 96.7 | 98.1 | 119 | 111 | 95.3 | 91.3 | 102 | 99.2 | 115 | 122 | 89.8 | 106 | 96.9 | viability, T/C [16]: 104%; viability, T/C [17]: 119%; viability, T/C [18]: 120%; viability, T/C [19]: 85.5%; viability, T/C [20]: 82.9%; viability, T/C [21]: 87.4%; viability, T/C [22]: 85%; viability, T/C [23]: 99.1%; viability, T/C [24]: 90.8%; viability, T/C [25]: 64.9%; viability, T/C [26]: 66.2%; viability, T/C [27]: 52.2%; viability, T/C [28]: 64.8%; viability, T/C [29]: 53%; viability, T/C [30]: 69.9%
